From patent publication US12441733B2, “Substituted 2,4-dioxotetrahydropyrimidines as intermediates in the synthesis of bruton's tyrosine kinase inhibitors” (Novartis AG, priority 2018, dated 2025)

Key:
Format in all cases: cell-based
TMD8 cells = assay: Resazurin cell viability (proliferation) assay in TMD8 DLBCL cells; settings: Homo sapiens, TMD8 cells (BTK dependent), 72 h, 50% growth inhibition vs vehicle, read-out: TMD8 Prol GI50
Protocol: (§1) Compounds of the invention were tested in the following cellular assays. The terms in Table 2 are defined as follows: DC50 refers to the concentration at which 50% maximal degradation was observed; deg Amax is the extent of degradation and the value refers to the % protein remaining at the concentration at which maximum degradation is seen; ProI GI50 refers to the proliferation data and defines the concentration at which 50% growth inhibition was observed compared to the vehicle treated control at the end of the incubation time. TMD8 cells are BTK dependent and OCI-LY3 cells are BTK independent.
(§2) Cell Viability Assay in DLBCL (Diffuse Large B-Cell Lymphoma) Cells:
(§3) The effect of the BTK compounds on cell proliferation was measured by a Resazurin (Sigma, #R7017) based cell viability assay. TMD8 (BTK compound sensitive) and OCI-LY3 (BTK compound insensitive) cells were incubated for 72 h at 37° C. and 5% CO2 with the corresponding compound, Resazurin is a non-toxic, cell-permeable substrate that is virtually non-fluorescent. Upon entering living cells, Resazurin (Sigma, #R7017) is reduced to highly fluorescent Resorufin. The metabolic activity was assessed by measuring the fluorescence signal (ex. 530 nm; em. 600 nm).
(§4) TMD8 and OCI-Ly3 cells were seeded at day 0 in triplicates at a cell density of 1×10^4 cells per 150 μl/well in a 96-well plate (Costar #3904). Additional plates were prepared, in order to assess the basal metabolic activity of both cell lines at the beginning of the experiment. For these reference plates, Resazurin (Sigma, #R7017) was added to a final concentration of 13 μg/ml 3 h post seeding and was incubated for 2 h at 37° C. and 5% CO2. Following incubation, the fluorescent signal intensity of the 96-well plates was measured on a Mithras LB940 multimode plate reader at 530/600 nm (Berthold Technologies, Germanyl).
(§5) In parallel, 3 h post-seeding, test-plates were treated with compound at various concentrations, or with vehicle (DMSO) alone for 3 days. The compound addition to the plates was performed by using a HP D300 digital dispenser (TECAN, Switzerland). The compounds were tested in triplicate, 8-point serial dilution (1:4), with a start concentration of 10 μM for OCI-LY3 and 1 μM for the TMD8 cells, respectively. To assess the relative proliferation of the cells, Resazurin was added to each well directly to the medium to a final concentration of 13 μg/ml. The plates were incubated for 2 h at 37° C. and 5% CO2 to result in a 72 h endpoint. Following incubation, the fluorescent signal intensity of the 96-well plates were measured on a Mithras LB940 multimode plate reader at 530/600 nm (Berthold Technologies, Germanyl). The formation of Resorufin dye directly correlates with the number of metabolically active cells. For each triplicate treatment the mean and standard deviation were calculated and analyzed via curve fitting software to determine the respective compound concentration resulting in 50% growth inhibition (GI50) values. For each compound GI50 values were typically determined from at least 2 entirely independent experiments.
TMD8 cells were acquired through a license agreement with Tokyo Medical and Dental University, Japan. Cells are cultivated in MEM Alpha (BioConcept, #1-23F01-1, lot. LB04262P) supplemented with 10% FCS (HyClone, GE #SH30066.03, lot AB3217603), 2 mM L-Glutamine (BioConcept, #5-10K50-H, lot. LA03467P), 1% Pen/Strep (BioConcept, #4-01F00-H, lot. LB04235P).

OCI-LY3 cells = assay: Resazurin cell viability (proliferation) assay in OCI-LY3 DLBCL cells; settings: Homo sapiens, OCI-LY3 cells (BTK independent), 72 h, 50% growth inhibition vs vehicle, read-out: OCI-LY3 Prol GI50
Protocol: as §1, §2, §3, §4, §5
OCI-LY3 cells were acquired through a license agreement with University Health Network, Toronto, Canada. Cells are cultivated in RPM11640 media (Gibco, #61870-010, lot. 1894759), supplemented with 10% FCS (HyClone, GE #SH30066.03, lot AB217603), 2 mM L-Glutamine (BioConcept, #5-10K50-H, lot. LA03467P), 1 mM Sodium Pyruvate (BioConcept, #5-60F00-H, lot. LB10510P), 10 mM HEPES (Gibco, #15630-056, lot. 1854074), 1% Pen/Strep (BioConcept, #4-01F00-H, lot. LB04235P).

BTK-GFP = target: T1, BTK-GFP (Homo sapiens, UniProt Q06187+Q96SW2); assay: BTK-GFP protein abundance flow cytometry assay in HEK293A cells; settings: HEK293A BTK-GFP-iresRFP cells, 24 h; for DC50: GFP signal by flow cytometry, concentration at which 50% maximal degradation was observed; for BTK deg Amax: % protein remaining at the concentration at which maximum degradation is seen
T1 construct: expressed in transfected cells; host or cells: HEK293A (Invitrogen R70507), lentiviral transduction with pLenti6-BTK-GFP-Ires-RFP, blasticidin selection
T1 sequence (Q06187 whole entry): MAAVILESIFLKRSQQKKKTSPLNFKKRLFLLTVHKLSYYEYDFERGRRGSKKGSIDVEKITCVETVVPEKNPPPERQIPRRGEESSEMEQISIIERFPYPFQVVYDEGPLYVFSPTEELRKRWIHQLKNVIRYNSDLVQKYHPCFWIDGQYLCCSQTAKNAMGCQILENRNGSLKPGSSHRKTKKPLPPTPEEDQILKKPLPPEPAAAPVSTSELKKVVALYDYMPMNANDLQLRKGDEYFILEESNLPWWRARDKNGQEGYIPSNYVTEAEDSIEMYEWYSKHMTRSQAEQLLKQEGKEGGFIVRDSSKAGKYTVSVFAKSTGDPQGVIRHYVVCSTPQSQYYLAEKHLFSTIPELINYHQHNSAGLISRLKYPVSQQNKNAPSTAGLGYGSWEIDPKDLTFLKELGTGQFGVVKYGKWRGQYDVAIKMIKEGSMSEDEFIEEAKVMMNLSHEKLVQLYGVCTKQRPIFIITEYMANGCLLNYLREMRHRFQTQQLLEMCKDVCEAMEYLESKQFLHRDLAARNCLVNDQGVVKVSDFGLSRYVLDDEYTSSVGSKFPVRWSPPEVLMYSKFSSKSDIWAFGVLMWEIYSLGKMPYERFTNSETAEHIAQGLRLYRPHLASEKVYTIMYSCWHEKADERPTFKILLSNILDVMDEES
T1 sequence (Q96SW2 whole entry): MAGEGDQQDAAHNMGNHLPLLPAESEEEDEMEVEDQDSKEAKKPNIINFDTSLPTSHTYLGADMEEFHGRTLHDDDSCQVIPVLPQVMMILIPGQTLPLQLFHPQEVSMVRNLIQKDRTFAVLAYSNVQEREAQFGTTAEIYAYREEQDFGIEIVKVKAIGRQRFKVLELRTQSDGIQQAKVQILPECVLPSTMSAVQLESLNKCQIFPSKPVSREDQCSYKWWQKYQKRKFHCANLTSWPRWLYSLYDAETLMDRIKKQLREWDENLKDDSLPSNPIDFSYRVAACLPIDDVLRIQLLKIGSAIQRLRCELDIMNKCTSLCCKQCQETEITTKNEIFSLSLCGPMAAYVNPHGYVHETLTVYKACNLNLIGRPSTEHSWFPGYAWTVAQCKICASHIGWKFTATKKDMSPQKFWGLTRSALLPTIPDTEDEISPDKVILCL
T1 sequence (Q16531 whole entry partner): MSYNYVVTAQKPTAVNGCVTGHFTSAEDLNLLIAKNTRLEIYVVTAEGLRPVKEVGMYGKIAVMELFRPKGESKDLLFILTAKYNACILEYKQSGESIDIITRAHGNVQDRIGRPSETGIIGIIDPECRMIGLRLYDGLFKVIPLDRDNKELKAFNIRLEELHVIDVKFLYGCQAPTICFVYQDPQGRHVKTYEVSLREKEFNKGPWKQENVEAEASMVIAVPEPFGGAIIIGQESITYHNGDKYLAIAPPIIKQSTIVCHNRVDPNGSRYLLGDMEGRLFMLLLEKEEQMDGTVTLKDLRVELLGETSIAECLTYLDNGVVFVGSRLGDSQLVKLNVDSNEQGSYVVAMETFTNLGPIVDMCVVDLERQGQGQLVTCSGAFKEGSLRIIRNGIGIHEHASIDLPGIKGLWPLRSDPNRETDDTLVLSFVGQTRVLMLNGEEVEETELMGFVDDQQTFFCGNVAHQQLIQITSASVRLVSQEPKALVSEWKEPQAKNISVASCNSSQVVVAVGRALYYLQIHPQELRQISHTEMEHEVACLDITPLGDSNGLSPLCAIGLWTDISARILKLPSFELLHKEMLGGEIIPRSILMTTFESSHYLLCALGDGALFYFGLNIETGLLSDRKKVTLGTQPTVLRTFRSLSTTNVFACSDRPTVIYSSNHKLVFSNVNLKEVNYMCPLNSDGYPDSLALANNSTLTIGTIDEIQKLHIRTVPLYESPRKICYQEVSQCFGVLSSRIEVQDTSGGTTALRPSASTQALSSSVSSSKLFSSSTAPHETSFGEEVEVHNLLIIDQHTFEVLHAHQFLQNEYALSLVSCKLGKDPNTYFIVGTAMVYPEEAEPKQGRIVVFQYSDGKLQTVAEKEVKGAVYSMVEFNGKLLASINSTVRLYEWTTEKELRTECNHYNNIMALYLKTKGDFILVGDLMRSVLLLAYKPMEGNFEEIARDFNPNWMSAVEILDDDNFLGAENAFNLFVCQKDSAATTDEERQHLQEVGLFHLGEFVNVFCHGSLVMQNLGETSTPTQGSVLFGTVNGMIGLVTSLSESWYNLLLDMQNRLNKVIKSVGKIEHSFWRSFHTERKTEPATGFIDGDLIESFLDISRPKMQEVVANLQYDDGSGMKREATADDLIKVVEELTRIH
Protocol: as §1
BTK-GFP and IKZF3-GFP protein abundance flow cytometry assay in HEK293A cells:
Degradation of BTK or IKZF3 was measured in HEK293A cells (Invitrogen R70507) expressing either BTK-GFP and RFP or IKZF3-GFP and RFP from a stably integrated bicistronic BTK-GFP-iresRFP or IKZF3-GFP-iresRFP construct, respectively. Reduction of the GFP signal measured by flow cytometry served as readout for BTK or IKZF3 degradation after degrader treatment.
i) Cloning of the pLenti6-BTK-GFP-1Res-RFP and IKZF3-GFP-Ires-RFP Sensor Vectors
The bicistronic BTK-GFP-iresRFP construct is based on a pLenti6-DEST vector backbone where GFP was introduced into the unique Xho1 site downstream of the destination cassette (DEST) and RFP was cloned behind an internal ribosomal entry site (Ires).
In detail, the sensor construct was engineered by replacing NanoLuciferase (NLuc) by GFP and FireFly luciferase (FF) by RFP from pLenti6-DEST-NLuc-Ires-FF.
The pLenti6-DEST-NLuc-Ires-FF sensor construct was cloned by replacing eGFP from pLenti6-DEST-ires-eGFP with a synthesized stuffer element (encoding Ires-FF with FF flanked by two Nhe1 restriction sites) using blunt end cloning replacing Ires-eGFP between the two PmII. To enable C-terminal tagging with NanoLuciferase (NLuc), NLuc was amplified from pNL1.1 (Promega #N1001) using linker primers with Xho1 sites for ligating into linearized pLenti6-DEST-Ires-FF using Xho1 digest resulting in the construct pLenti6-DEST-NLuc-Ires-FF.
The pLenti6-DEST-NLuc-Ires-FF served as base vector for cloning pLenti6-DEST-GFP-Ires-RFP using Gibson assembly to replace FF with RFP and NLuc with GFP. In a first round FF was replaced by RFP by amplifying RFP from a template using the following Gibson assembly linker primers (Gibson-Nhe1 RFPfw, […]gctagc[…] (SEQ ID NO: 1); Gibson-Nhe1 RFP-Stoprev, […]ctagc[…] (SEQ ID NO: 2)) to clone into pLenti6-DEST-NLuc-Ires-FF digested with Nhe1 and gel-purified to remove the FF fragment. The resulting pLenti6-DEST-NLuc-Ires-RFP vector served as the template to replace NLuc with GFP by amplifying GFP from a template using following Gibson assembly linker primers (Gibson-Xho1 GFPfw, […]c[…] (SEQ ID NO: 3); Gibson-Xho1 GFP-Stoprev, […] (SEQ ID NO: 4)) to clone into pLenti6-DEST-NLuc-Ires-RFP digested with Xho1 and gel-purified to remove the NLuc fragment. All Gibson assembly reactions were performed with Gibson assembly Master Mix (New England Biolabs NEB E261 IL) according to manufacturer's manual, resulting in the destination vector pLenti6-DEST-GFP-Ires-RFP to allow Gateway cloning. To enable gateway cloning and C-terminal GFP tagging of BTK, the BTK open reading frame (ORF) was first shuttled from a pcDNA-DEST40-BTK vector (Invitrogen library ID INV_20090504v1) into pDONR221 (Invitrogen 12536-017) vector using a gateway BP reaction according to the manufacturer's manual (Invitrogen 11789-013) resulting in the novel construct pENTR221-BTK. For C-terminal tagging the STOP codon was mutated to a leucine performing a mutagenesis reaction with the following primers (pENTR221-BTK Quikchange STOP-Leu fw, gtcatggatgaagaatccTTGaacccagctttcttgtac; pENTR221-BTK Quikchange STOP-Leu REVC, gtacaagaaagctgggttCAAggattcttcatccatgac) using the QuikChange Lightning mutagenesis kit (Agilent Technologies #210518) according to the manufacturer's manual, resulting in pENTR221-BTK (STOP-Leu). […]

| SMILES | GI50 (TMD8 cells) | GI50 (OCI-LY3 cells) | DC50 (BTK-GFP) | BTK deg Amax (BTK-GFP) |
| --- | --- | --- | --- | --- |
| COc1ccc(C(=O)N2CCC3(CCN(Cc4ccc(-c5cc6c(-c7cc(F)cc(NC(=O)c8ccc(C(C)(C)O)cc8F)c7C)ncnc6[nH]5)cc4)CC3)C(CO)C2)cc1N1CCC(=O)NC1=O (racemic) [Compound 1, rac-N-(3-(6-(4-((9-(3-(2,4-Dioxotetrahydropyrimidin-1(2H)-yl)-4-methoxybenzoyl)-7-(hydroxymethyl)-3,9-diazaspiro[5.5]undecan-3-yl)methyl)phenyl)-7H-pyrrolo[2,3-d]pyrimidin-4-yl)-5-fluoro-2-methylphenyl)-2-fluoro-4-(2-hydroxypropan-2-yl)benzamide] | 3.89 nM | > 10000 nM | 26.2 nM | 4.2% |
| COc1ccc(C(=O)N2CCC(OC(CO)CN3CCC(Oc4ccc(-c5cc6c(-c7cc(F)cc(NC(=O)c8ccc(C(C)(C)O)cc8F)c7C)ncnc6[nH]5)cc4)CC3)CC2)cc1N1CCC(=O)NC1=O (racemic) [Compound 18, rac-N-(3-(6-(4-((1-(2-((1-(3-(2,4-Dioxotetrahydropyrimidin-1(2H)-yl)-4-methoxybenzoyl)piperidin-4-yl)oxyl)-3-hydroxypropyl)piperidin-4-yl)oxyl)phenyl)-7H-pyrrolo[2,3-d]pyrimidin-4-yl)-5-fluoro-2-methylphenyl)-2-fluoro-4-(2-hydroxypropan-2-yl)benzamide] | 1.58 nM | 4320 nM | 10.8 nM | 3.4% |
| COc1ccc(C(=O)N2CCC3(CCN(Cc4ccc(-c5cc6c(-c7cc(F)cc(NC(=O)c8ccc(C(C)(C)O)cc8F)c7C)ncnc6[nH]5)cc4)CC3CO)CC2)cc1N1CCC(=O)NC1=O (racemic) [Compound 23, rac-N-(3-(6-(4-((9-(3-(2,4-Dioxotetrahydropyrimidin-1(2H)-yl)-4-methoxybenzoyl)-1 (hydroxymethyl)-3,9-diazaspiro[5.5]undecan-3-yl)methyl)phenyl)-7H-pyrrolo[2,3-d]pyrimidin-4-yl)-5-fluoro-2-methylphenyl)-2-fluoro-4-(2-hydroxypropan-2-yl)benzamide] | 5.35 nM | > 10000 nM | 46.8 nM | 10.4% |
| COc1ccc(C(=O)N2CCC3(CCN(Cc4ccc(-c5cc6c(-c7cc(F)cc(NC(=O)c8ccc(C(C)(C)O)cc8F)c7C)ncnc6[nH]5)cc4)CC3)[C@@H](CO)C2)cc1N1CCC(=O)NC1=O (single isomer, unassigned) [Compound 2] | 3.57 nM | > 10000 nM | 38.5 nM | 4.6% |
| COc1ccc(C(=O)N2CCC3(CCN(Cc4ccc(-c5cc6c(-c7cc(F)cc(NC(=O)c8ccc(C(C)(C)O)cc8F)c7C)ncnc6[nH]5)cc4)CC3)[C@H](CO)C2)cc1N1CCC(=O)NC1=O (single isomer, unassigned) [Compound 3] | 2.24 nM | > 10000 nM | 19.1 nM | 3.6% |
| COc1ccc(C(=O)N2CCC3(CCN(Cc4ccc(-c5cc6c(-c7cc(F)cc(NC(=O)c8ccc(C(C)(C)O)cc8F)c7C)ncnc6[nH]5)cc4)C[C@@H]3CO)CC2)cc1N1CCC(=O)NC1=O (single isomer, unassigned) [Compound 24] | 5.98 nM | > 10000 nM | 77.1 nM | 10.8% |
| COc1ccc(C(=O)N2CCC3(CCN(Cc4ccc(-c5cc6c(-c7cc(F)cc(NC(=O)c8ccc(C(C)(C)O)cc8F)c7C)ncnc6[nH]5)cc4)C[C@H]3CO)CC2)cc1N1CCC(=O)NC1=O (single isomer, unassigned) [Compound 25] | 11.4 nM | > 10000 nM | 78.4 nM | 7.2% |
| COc1ccc(C(=O)N2CCC(CN3CCN(Cc4ccc(-c5cc6c(-c7cc(F)cc(NC(=O)c8ccc(C(C)(C)O)cc8F)c7C)ncnc6[nH]5)cc4)CC3)CC2)cc1N1CCC(=O)NC1=O [Compound 7, N-(3-(6-(4-((4-((1-(3-(2,4-Dioxotetrahydropyrimidin-1(2H)-yl)-4-methoxybenzoyl)piperidin-4-yl)methyl)piperazin-1-yl)methyl)phenyl)-7H-pyrrolo[2,3-d]pyrimidin-4-yl)-5-fluoro-2-methylphenyl)-2-fluoro-4-(2-hydroxypropan-2-yl)benzamide] | 0.39 nM | 6120 nM | 0.7 nM | 3.3% |
